Key:
Experiment in all cases: Test E pre-/postemergence plant response
Assay type in all cases: in vivo
Conditions in all cases: scale 0 to 100
[1] = system: common purslane (Portulaca oleracea)
Source text: (§1) Seeds of plant species selected from bermudagrass (Cynodon dactylon), Surinam grass (Brachiaria decumbens), large crabgrass (Digitaria sanguinalis), green foxtail (Setaria viridis), goosegrass (Eleusine indica), johnsongrass (Sorghum halepense), kochia (Kochia scoparia), pitted morningglory (Ipomoea lacunosa), purple nutsedge (Cyperus rotundus), common ragweed (Ambrosia elation), black mustard (Brassica nigra), guineagrass (Panicum maximum), dallisgrass (Paspalum dilatatum), barnyardgrass (Echinochloa crus-galli), southern (S.) sandbur (Cenchrus echinatus), common sowthistle (Sonchus oleraceous), prickly sida (Sida spinosa), Italian ryegrass (Lolium multiflorum), common purslane (Portulaca oleracea), broadleaf signalgrass (Brachiaria platyphylla), common groundsel (Senecio vulgaris), common chickweed (Stellaria media), Virginia (V.) dayflower (Commelina virginica), tropical (T.) spiderwort (Commelina benghalensis), annual bluegrass (Poa annua), naked crabgrass (Digitaria nuda), itchgrass (Rottboellia cochinchinensis), quackgrass (Elytrigia repens), Canada horseweed (Conyza canadensis), field bindweed (Convolvulus arvensis), spanishneedles (Bidens bipinnata), common mallow (Malva sylvestris) and Russian thistle (Salsola kali) were planted and treated preemergence with test chemicals formulated in a non-phytotoxic solvent mixture which included a surfactant. At the same time, plants selected from these weed species were treated with postemergence applications of some of the test chemicals formulated in the same manner. Plants ranged in height from 2 to 18 cm (1- to 4-leaf stage) for postemergence treatments.
(§2) Treated plants and controls were maintained in a greenhouse for 14 to 21 days, after which time all species were compared to controls and visually evaluated. Plant response ratings, summarized in Table E, are based on a scale of 0 to 100 where 0 is no effect and 100 is complete control. A dash (-) response means no test result.

[2] = system: barnyardgrass (Echinochloa crus-galli)
Source text: as §1, §2

[3] = system: quackgrass (Elytrigia repens)
Source text: as §1, §2

[4] = system: pitted morningglory (Ipomoea lacunosa)
Source text: as §1, §2

[5] = system: southern (S.) sandbur (Cenchrus echinatus)
Source text: as §1, §2

[6] = system: common mallow (Malva sylvestris)
Source text: as §1, §2

[7] = system: bermudagrass (Cynodon dactylon)
Source text: as §1, §2

Cn1ncc(O)c(-c2nn(-c3ccc(Cl)cc3)cc2Br)c1=O [Compound 31]
Plant response rating, Purslane ([1]; 16 g ai/ha, Preemergence): 0
Plant response rating, Purslane ([1]; 31 g ai/ha, Preemergence): 0
Plant response rating, Purslane ([1]; 62 g ai/ha, Preemergence): 0
Plant response rating, Purslane ([1]; Postemergence, 8 g ai/ha): 0
Plant response rating, Purslane ([1]; Postemergence, 16 g ai/ha): 0
Plant response rating, Purslane ([1]; Postemergence, 31 g ai/ha): 0
Plant response rating, Purslane ([1]; Postemergence, 62 g ai/ha): 0
Plant response rating, Barnyardgrass ([2]; 8 g ai/ha, Preemergence): 0
Plant response rating, Barnyardgrass ([2]; 16 g ai/ha, Preemergence): 15
Plant response rating, Barnyardgrass ([2]; 31 g ai/ha, Preemergence): 75
Plant response rating, Barnyardgrass ([2]; 62 g ai/ha, Preemergence): 90
Plant response rating, Barnyardgrass ([2]; Postemergence, 8 g ai/ha): 35
Plant response rating, Barnyardgrass ([2]; Postemergence, 16 g ai/ha): 70
Plant response rating, Barnyardgrass ([2]; Postemergence, 31 g ai/ha): 75
Plant response rating, Barnyardgrass ([2]; Postemergence, 62 g ai/ha): 100
Plant response rating, Quackgrass ([3]; 16 g ai/ha, Preemergence): 0
Plant response rating, Quackgrass ([3]; 31 g ai/ha, Preemergence): 20
Plant response rating, Quackgrass ([3]; 62 g ai/ha, Preemergence): 65
Plant response rating, Quackgrass ([3]; Postemergence, 8 g ai/ha): 0
Plant response rating, Quackgrass ([3]; Postemergence, 16 g ai/ha): 30
Plant response rating, Quackgrass ([3]; Postemergence, 31 g ai/ha): 30
Plant response rating, Quackgrass ([3]; Postemergence, 62 g ai/ha): 50
Plant response rating, Morningglory ([4]; 16 g ai/ha, Preemergence): 0
Plant response rating, Morningglory ([4]; 31 g ai/ha, Preemergence): 0
Plant response rating, Morningglory ([4]; 62 g ai/ha, Preemergence): 0
Plant response rating, Morningglory ([4]; Postemergence, 8 g ai/ha): 0
Plant response rating, Morningglory ([4]; Postemergence, 16 g ai/ha): 0
Plant response rating, Morningglory ([4]; Postemergence, 31 g ai/ha): 0
Plant response rating, Morningglory ([4]; Postemergence, 62 g ai/ha): 0
Plant response rating, Sandbur, S. ([5]; 16 g ai/ha, Preemergence): 15
Plant response rating, Sandbur, S. ([5]; 31 g ai/ha, Preemergence): 20
Plant response rating, Sandbur, S. ([5]; 62 g ai/ha, Preemergence): 90
Plant response rating, Sandbur, S. ([5]; Postemergence, 8 g ai/ha): 0
Plant response rating, Sandbur, S. ([5]; Postemergence, 16 g ai/ha): 70
Plant response rating, Sandbur, S. ([5]; Postemergence, 31 g ai/ha): 75
Plant response rating, Sandbur, S. ([5]; Postemergence, 62 g ai/ha): 75
Plant response rating, Mallow ([6]; 31 g ai/ha, Preemergence): 0
Plant response rating, Mallow ([6]; 62 g ai/ha, Preemergence): 0
Plant response rating, Mallow ([6]; Postemergence, 8 g ai/ha): 0
Plant response rating, Mallow ([6]; Postemergence, 16 g ai/ha): 0
Plant response rating, Mallow ([6]; Postemergence, 31 g ai/ha): 0
Plant response rating, Mallow ([6]; Postemergence, 62 g ai/ha): 0
Plant response rating, Bermudagrass ([7]; 8 g ai/ha, Preemergence): 0
Plant response rating, Bermudagrass ([7]; 16 g ai/ha, Preemergence): 75
Plant response rating, Bermudagrass ([7]; 31 g ai/ha, Preemergence): 95
Plant response rating, Bermudagrass ([7]; 62 g ai/ha, Preemergence): 100
Plant response rating, Bermudagrass ([7]; Postemergence, 8 g ai/ha): 65
Plant response rating, Bermudagrass ([7]; Postemergence, 16 g ai/ha): 75
Plant response rating, Bermudagrass ([7]; Postemergence, 31 g ai/ha): 90
Plant response rating, Bermudagrass ([7]; Postemergence, 62 g ai/ha): 95

Cc1cc(-c2ccc(Cl)cc2)nn1-c1c(OS(C)(=O)=O)cnn(C)c1=O [Compound 36]
Plant response rating, Purslane ([1]; 16 g ai/ha, Preemergence): 0
Plant response rating, Purslane ([1]; 31 g ai/ha, Preemergence): 0
Plant response rating, Purslane ([1]; 62 g ai/ha, Preemergence): 0
Plant response rating, Purslane ([1]; Postemergence, 8 g ai/ha): 0
Plant response rating, Purslane ([1]; Postemergence, 16 g ai/ha): 0
Plant response rating, Purslane ([1]; Postemergence, 31 g ai/ha): 0
Plant response rating, Purslane ([1]; Postemergence, 62 g ai/ha): 0
Plant response rating, Barnyardgrass ([2]; 8 g ai/ha, Preemergence): 80
Plant response rating, Barnyardgrass ([2]; 16 g ai/ha, Preemergence): 95
Plant response rating, Barnyardgrass ([2]; 31 g ai/ha, Preemergence): 95
Plant response rating, Barnyardgrass ([2]; 62 g ai/ha, Preemergence): 100
Plant response rating, Barnyardgrass ([2]; Postemergence, 8 g ai/ha): 50
Plant response rating, Barnyardgrass ([2]; Postemergence, 16 g ai/ha): 50
Plant response rating, Barnyardgrass ([2]; Postemergence, 31 g ai/ha): 95
Plant response rating, Barnyardgrass ([2]; Postemergence, 62 g ai/ha): 100
Plant response rating, Quackgrass ([3]; 16 g ai/ha, Preemergence): 20
Plant response rating, Quackgrass ([3]; 31 g ai/ha, Preemergence): 50
Plant response rating, Quackgrass ([3]; 62 g ai/ha, Preemergence): 70
Plant response rating, Quackgrass ([3]; Postemergence, 8 g ai/ha): 0
Plant response rating, Quackgrass ([3]; Postemergence, 16 g ai/ha): 0
Plant response rating, Quackgrass ([3]; Postemergence, 31 g ai/ha): 30
Plant response rating, Quackgrass ([3]; Postemergence, 62 g ai/ha): 35
Plant response rating, Morningglory ([4]; 16 g ai/ha, Preemergence): 0
Plant response rating, Morningglory ([4]; 31 g ai/ha, Preemergence): 0
Plant response rating, Morningglory ([4]; 62 g ai/ha, Preemergence): 0
Plant response rating, Morningglory ([4]; Postemergence, 8 g ai/ha): 0
Plant response rating, Morningglory ([4]; Postemergence, 16 g ai/ha): 0
Plant response rating, Morningglory ([4]; Postemergence, 31 g ai/ha): 0
Plant response rating, Morningglory ([4]; Postemergence, 62 g ai/ha): 0
Plant response rating, Sandbur, S. ([5]; 16 g ai/ha, Preemergence): 90
Plant response rating, Sandbur, S. ([5]; 31 g ai/ha, Preemergence): 100
Plant response rating, Sandbur, S. ([5]; 62 g ai/ha, Preemergence): 100
Plant response rating, Sandbur, S. ([5]; Postemergence, 8 g ai/ha): 40
Plant response rating, Sandbur, S. ([5]; Postemergence, 16 g ai/ha): 65
Plant response rating, Sandbur, S. ([5]; Postemergence, 31 g ai/ha): 80
Plant response rating, Sandbur, S. ([5]; Postemergence, 62 g ai/ha): 85
Plant response rating, Mallow ([6]; 16 g ai/ha, Preemergence): 0
Plant response rating, Mallow ([6]; 31 g ai/ha, Preemergence): 0
Plant response rating, Mallow ([6]; 62 g ai/ha, Preemergence): 0
Plant response rating, Mallow ([6]; Postemergence, 8 g ai/ha): 0
Plant response rating, Mallow ([6]; Postemergence, 16 g ai/ha): 0
Plant response rating, Mallow ([6]; Postemergence, 31 g ai/ha): 0
Plant response rating, Mallow ([6]; Postemergence, 62 g ai/ha): 0
Plant response rating, Bermudagrass ([7]; 8 g ai/ha, Preemergence): 75
Plant response rating, Bermudagrass ([7]; 16 g ai/ha, Preemergence): 100
Plant response rating, Bermudagrass ([7]; 31 g ai/ha, Preemergence): 100
Plant response rating, Bermudagrass ([7]; 62 g ai/ha, Preemergence): 100
Plant response rating, Bermudagrass ([7]; Postemergence, 8 g ai/ha): 40
Plant response rating, Bermudagrass ([7]; Postemergence, 16 g ai/ha): 40
Plant response rating, Bermudagrass ([7]; Postemergence, 31 g ai/ha): 70
Plant response rating, Bermudagrass ([7]; Postemergence, 62 g ai/ha): 90

Reference: patent US20100267561A1, “HERBICIDAL PYRIDAZINONE DERIVATIVES” (priority 2007, published 2010)
